Data on 14 molecules can be found in patent US7812022B2 (GlaxoSmithKline LLC, priority 2004, dated 2010).

Assay [1] addresses T1, ErbB2 or EGFR.
T1 construct: enzymes purified from a baculovirus expression system; Reagent production was conducted essentially as described in Brignola, P. S., et al, (2002) J. Biol. Chem. 277(2): 1576-1585
As to the kind of experiment: ErbB family substrate phosphorylation enzyme assay (HTRF), Method A or Method B. Format: biochemical. In outline:
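Baculovirus-expressed EGFR or ErbB2 (0.8 or 10 nM in enzyme mix) phosphorylates biotinylated Peptide C with 20 µM ATP and 0.8 µM peptide (substrate-mix levels), MnCl2, pH 7.5. Reaction ran 90 min at 20 °C with EDTA stop and HTRF anti-phosphotyrosine read. Method A: enzyme added last; Method B: 1 h enzyme–compound preincubation.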

Assay [2] concerns BT474 and HN5 tumor cell lines. Kind of assay: Celltiter Glo growth inhibition assay (cellular Method B). The note with it: Homo sapiens, BT-474, 72 h, 3 days, read-out: Activity (Method): growth inhibition IC50 class. Format: cell-based. On the procedure:
(§1) Human breast tumor cells (BT474) were cultured in RPMI, (Invitrogen, 22400) containing 10% fetal bovine serum (FBS). Human head and neck tumor cells (HN5) were cultured in low glucose DMEM (Invitrogen, 12320) containing 10% FBS. Human colon tumor cells (Colo205) were cultured in DMEM (Invitrogen, 10564) containing 10% FBS. All cell lines were maintained at 37° C. in a humidified 5% CO2, 95% air incubator. Cells were harvested using trypsin/EDTA, counted using a haemocytometer, and plated in 30 microliters of the appropriate media described above, at the following densities, in a half area, black-walled, 96-well tissue culture plate (Corning 3882): BT474 3,000 cells/well, HN5 500 cells/well and Colo205 cells, 3,000 cells/well. The next day, compounds were diluted in DMEM containing […] gentamicin, from 10 mM stock solutions in DMSO. 30 microliters/well of these dilutions were added to the 30 microliters/well of media currently on the cell plates. Medium containing 0.6% DMSO was added to control wells. The final concentration of DMSO in all wells was 0.3%. Cells were incubated at 37° C., 5% CO2 for 3 days. Cell biomass was estimated using Celltiter Glo (Promega G7571). Briefly, plates were removed from the incubator and allowed to equilibrate to rt for 30 minutes. 60 microliters of Celltiter Glo reagent were added to each well of the treated cells and plates were shaken on an orbital plate shaker for 2 min. Plates were incubated without shaking for 30 more min and read in a luminometer with an integration time of 0.5 seconds per well. Percent inhibition of cell growth was calculated relative to vehicle treated control wells. Concentration of compound that inhibits 50% of vehicle control cell growth (IC50) was interpolated using nonlinear regression (Levenberg-Marquardt) and the equation, y=Vmax*(1−(x/(K+x)))+Y2, where “K” was equal to the IC50.
For orientation: ATP-based viability assays read luminescence as a measure of living cells.

Assay [3] relates to Colo205 tumor cell lines. As to the kind of experiment: Celltiter Glo growth inhibition assay (cellular Method B), Colo205. It counts as cell-based. To be noted: Homo sapiens, COLO 205, 72 h, 3 days, read-out: Activity (Method): growth inhibition IC50 class. On the procedure:
as §1

The test system of assay [4] is BT474 and HN5 tumor cell lines. Kind of assay: Methylene blue growth inhibition assay (cellular Method A). Format: cell-based, Human. The note with it: Homo sapiens, BT-474, 72 h, 3 days, read-out: Activity (Method): growth inhibition IC50 class. In outline: (§2)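 Colo205, BT474 and HN5 cells in DMEM/10% FBS (BT474 10,000, HN5 3,000 cells/well) treated next day with compound in DMEM, 0.3% final DMSO, for 3 days at 37° C. Biomass stained with methylene blue, solubilized, read at OD 620; IC50 interpolated by nonlinear regression from % inhibition versus vehicle.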

In assay [5] the test system is Colo205 tumor cell lines. As to the kind of experiment: Methylene blue growth inhibition assay (cellular Method A), Colo205. Format: cell-based, Human. The note with it: Homo sapiens, COLO 205, 72 h, 3 days, read-out: Activity (Method): growth inhibition IC50 class. Put shortly: as §2
Where [6] appears, read: Method B: enzyme mix pre-incubated with compound 1 hour at 20° C., started with substrate mix.
The mark [7] stands for this setting: Method A: substrate mix added first, reaction started with enzyme mix.

Broadly, the IC50 is the concentration needed to halve the response being measured. `CN(C)CCOc1cccc(Nc2nccc(-c3c(-c4cccc(NC(=O)c5c(F)cccc5F)c4)nn4cc(F)ccc34)n2)c1` [Example 171, N-[3-(3-{2-[(3-{[2-(Dimethylamino)ethyl]oxy}phenyl)amino]-4-pyrimidinyl}-6-fluoropyrazolo[1,5-a]pyridin-2-yl)phenyl]-2,6-difluorobenzamide]: in assay [1] (setting [6]), the “Activity (Method): pIC50 class against ErbB2 or EGFR” value (from here on “Activity (Method): pIC50 class”) is on record as “+++ (B) (at least one pIC50 measurement of greater than 7 against either ErbB2 or EGFR)”. The figures for the IC50 in assay [2] and in assay [3] were less than 100 nM and more than 1000 nM, respectively.
In the case of `CN(C)CCOc1ccc(Nc2nccc(-c3c(-c4cccc(NC(=O)c5c(F)cccc5F)c4)nn4ccccc34)n2)cc1Cl` [Example 128, N-[3-(3-{2-[(3-Chloro-4-{[2-(dimethylamino)ethyl]-oxy}phenyl)amino]-4-pyrimidinyl}pyrazolo[1,5-a]pyridin-2-yl)phenyl]-2,6-difluorobenzamide], in assay [1] (setting [6]), the “Activity (Method): pIC50 class” value is given as “+++ (B) (at least one pIC50 measurement of greater than 7 against either ErbB2 or EGFR)”. Besides, the IC50 in assay [2] is less than 100 nM; in assay [3] it was more than 1000 nM.
For the molecule `NCc1cccc(Nc2nccc(-c3c(-c4cccc(NC(=O)c5c(F)cccc5F)c4)nn4ccccc34)n2)c1` [Example 180, N-{3-[3-(2-{[3-(Aminomethyl)phenyl]amino}-4-pyrimidinyl)pyrazolo[1,5-a]pyridin-2-yl]phenyl}-2,6-difluorobenzamide], in assay [1] (setting [6]), the “Activity (Method): pIC50 class” value is on record as “+++ (B) (at least one pIC50 measurement of greater than 7 against either ErbB2 or EGFR)”. Further, the IC50 is less than 100 nM in assay [2] and more than 1000 nM in assay [3].
For `CS(=O)(=O)CCNCc1cccc(Nc2nccc(-c3c(-c4cccc(NC(=O)c5cc(F)ccc5F)c4)nn4ccccc34)n2)c1` [Example 187, 2,5-Difluoro-N-{3-[3-(2-{[3-({[2-(methylsulfonyl)ethyl]amino}-methyl)phenyl]amino}-4-pyrimidinyl)pyrazolo[1,5-a]pyridin-2-yl]phenyl}benzamide] the same measures were “+++ (B) (at least one pIC50 measurement of greater than 7 against either ErbB2 or EGFR)”, less than 100 nM and 100 to 1000 nM.
For the molecule `CS(=O)(=O)CCNCc1cccc(Nc2nccc(-c3c(-c4cccc(NC(=O)c5c(F)cccc5F)c4)nn4ccccc34)n2)c1` [Example 188, 2,6-Difluoro-N-{3-[3-(2-{[3-({[2-(methylsulfonyl)ethyl]amino}-methyl)phenyl]amino}-4-pyrimidinyl)pyrazolo[1,5-a]pyridin-2-yl]phenyl}benzamide], the “Activity (Method): pIC50 class” value in assay [1] (setting [6]) is “+++ (B) (at least one pIC50 measurement of greater than 7 against either ErbB2 or EGFR)”. Also, the IC50 is less than 100 nM in assay [2] and more than 1000 nM in assay [3].
As to `CN(C)c1cccc2c(-c3ccnc(Nc4cccc(F)c4)n3)c(-c3cccc(NC(=O)c4c(F)cccc4F)c3)nn12.O=C(O)C(F)(F)F` [Example 175, N-[3-(7-(Dimethylamino)-3-{2-[(3-fluorophenyl)amino]-4-pyrimidinyl}pyrazolo[1,5-a]pyridin-2-yl)phenyl]-2,6-difluorobenzamide trifluoroacetate], in assay [1] (setting [6]), the “Activity (Method): pIC50 class” value was “+++ (B) (at least one pIC50 measurement of greater than 7 against either ErbB2 or EGFR)”. In addition, the figures for the IC50 in assay [2] and in assay [3] were 100 to 1000 nM and more than 1000 nM, respectively.
Take `CN1CCc2ccc(Nc3ncc(F)c(-c4c(-c5cccc(NC(=O)c6c(F)cccc6F)c5)nn5ccccc45)n3)cc2C1` [Example 203, 2,6-Difluoro-N-[3-(3-{5-fluoro-2-[(2-methyl-1,2,3,4-tetrahydro-7-isoquinolinyl)amino]-4-pyrimidinyl}pyrazolo[1,5-a]pyridin-2-yl)phenyl]benzamide]: in assay [1] (setting [6]), the “Activity (Method): pIC50 class” value is recorded as “+++ (B) (at least one pIC50 measurement of greater than 7 against either ErbB2 or EGFR)”. Further, the IC50 in assay [2] is less than 100 nM; in assay [3], 100 to 1000 nM.
For the molecule `CN1CCc2ccc(Nc3nccc(-c4c(-c5cccc(NC(=O)c6c(F)cccc6F)c5)nn5cccc(F)c45)n3)cc2C1` [Example 169, 2,6-Difluoro-N-[3-(4-fluoro-3-{2-[(2-methyl-1,2,3,4-tetrahydro-7-isoquinolinyl)amino]-4-pyrimidinyl}pyrazolo[1,5-a]pyridin-2-yl)phenyl]benzamide], in assay [1] (setting [6]), the “Activity (Method): pIC50 class” value was “+++ (B) (at least one pIC50 measurement of greater than 7 against either ErbB2 or EGFR)”. Further, the IC50 was less than 100 nM in assay [2] and more than 1000 nM in assay [3].
On the same counts, the results for `CN(C)CCOc1cccc(Nc2nccc(-c3c(-c4ccc(F)c(NC(=O)c5c(F)cccc5F)c4)nn4ccccc34)n2)c1` [Example 182, N-[5-(3-{2-[(3-{[2-(Dimethylamino)ethyl]oxy}phenyl)amino]-4-pyrimidinyl}pyrazolo[1,5-a]pyridin-2-yl)-2-fluorophenyl]-2,6-difluorobenzamide] are “+++ (B) (at least one pIC50 measurement of greater than 7 against either ErbB2 or EGFR)”, less than 100 nM and 100 to 1000 nM.
In the case of `CNCc1cccc(Nc2nccc(-c3c(-c4cccc(NC(=O)c5c(F)cccc5F)c4)nn4ccccc34)n2)c1` [Example 183, 2,6-Difluoro-N-(3-{3-[2-({3-[(methylamino)methyl]phenyl}amino)-4-pyrimidinyl]pyrazolo[1,5-a]pyridin-2-yl}phenyl)benzamide], the “Activity (Method): pIC50 class” value in assay [1] (setting [6]) is on record as “+++ (B) (at least one pIC50 measurement of greater than 7 against either ErbB2 or EGFR)”. For the same molecule, the IC50 in assay [2] is less than 100 nM; in assay [3], more than 1000 nM.
Take `Cc1ncoc1-c1cccc(Nc2nccc(-c3c(-c4cccc(NC(=O)c5c(F)cccc5F)c4)nn4ccccc34)n2)c1` [Example 178, 2,6-Difluoro-N-{3-[3-(2-{[3-(4-methyl-1,3-oxazol-5-yl)phenyl]amino}-4-pyrimidinyl)pyrazolo[1,5-a]pyridin-2-yl]phenyl}benzamide]: the “Activity (Method): pIC50 class” value in assay [1] (setting [6]) is “+++ (B) (at least one pIC50 measurement of greater than 7 against either ErbB2 or EGFR)”. Besides, the IC50 is less than 100 nM in assay [4] and 100 to 1000 nM in assay [3].
Turning to `O=C1COc2ccc(Nc3nccc(-c4c(-c5cccc(NC(=O)c6c(F)cccc6F)c5)nn5ccccc45)n3)cc2N1` [Example 197, 2,6-Difluoro-N-[3-(3-{2-[(3-oxo-3,4-dihydro-2H-1,4-benzoxazin-6-yl)amino]-4-pyrimidinyl}pyrazolo[1,5-a]pyridin-2-yl)phenyl]benzamide], in assay [1] (setting [6]), the “Activity (Method): pIC50 class” value was “+++ (B) (at least one pIC50 measurement of greater than 7 against either ErbB2 or EGFR)”. The half-maximal inhibitory concentration (IC50) is less than 100 nM in assay [4] and 100 to 1000 nM in assay [5].
For the molecule `O=C(Nc1ccccc1)Nc1cccc(-c2nn3ccccc3c2-c2ccnc(Nc3ccc4c(c3)OCCO4)n2)c1` [Example 1, 1-(3-{3-[2-(2,3-Dihydro-benzo[1,4]dioxin-6-ylamino)-pyrimidin-4-yl]-pyrazolo[1,5-]pyridin-2-yl}-phenyl)-3-phenyl-urea], the “Activity (Method): pIC50 class” value in assay [1] (setting [7]) was “++ (A) (at least one pIC50 measurement greater than 6 against either ErbB2 or EGFR but no measurement greater than pIC50 of 7)”. Moreover, the IC50 in assay [4] and in assay [5] was more than 1000 nM in each case.
Turning to `COc1ccc(Nc2nccc(-c3c(-c4cccc(NC(=O)c5c(F)cccc5F)c4)nn4ccccc34)n2)cc1F` [Example 29, 2,6-Difluoro-N-{3-[3-(2-{[3-fluoro-4-(methyloxy)-phenyl]amino}-4-pyrimidinyl)pyrazolo[1,5-a]pyridin-2-yl]phenyl}benzamide], the “Activity (Method): pIC50 class” value in assay [1] (setting [7]) is reported as “++ (A) (at least one pIC50 measurement greater than 6 against either ErbB2 or EGFR but no measurement greater than pIC50 of 7)”. Besides, the IC50 is less than 100 nM in assay [4] and more than 1000 nM in assay [5].
